Data taken from patent publication US6193992A, “Female sexual dysfunction treatment” (Pentech Pharmaceuticals, Inc., priority 1999, dated 2001).
Entries after “also recorded” stand apart in the source; their conditions may differ.

Tests used:
[1] = system: clitoral intracavernosal blood flow; test: Effect of apomorphine on clitoral intracavernosal blood flow (laser Doppler flow) before and after pelvic nerve stimulation; assay type: in vivo, New Zealand White female rabbits; details: intravenous, female rabbits
Description: (§1) New Zealand White female rabbits (n=6, about 3.5-4 kg) were anesthetized with intravenous administration of pentobarbital. A 20 gauge angiocatheter was placed into the right carotid artery for measurement of systemic arterial pressure. A midline abdominal incision was made and the pelvic nerve branch to the vagina and clitoris was dissected. Nerve stimulation was performed with a Harvard subminiature electrode placed around the pelvic nerve branch to the vagina and clitoris and connected to a Grass SD-9 stimulator. Clitoral intracavernosal and vaginal wall blood flow were measured with a laser Doppler flow probe placed directly into the clitoral cavernosal tissue or into the vaginal wall and connected to a laser Doppler flowmeter.
(§2) Basal arterial blood pressure and clitoral and vaginal blood flow were each recorded before and then after stimulation of the pelvic nerve branch to the clitoris and vagina.

[2] = system: vaginal wall blood flow; test: Effect of apomorphine on vaginal wall blood flow (laser Doppler flow) before and after pelvic nerve stimulation; assay type: in vivo, New Zealand White female rabbits; details: female rabbits
Description: as §1, §2

[3] = system: systemic arterial pressure; test: Effect of apomorphine on systemic arterial pressure; assay type: in vivo, New Zealand White female rabbits; details: intravenous, female rabbits, FIG. 3
Description: as §1, §2

[4] = system: vaginal and clitoral blood flow; test: Optimum dose for vasculogenic effect on nerve stimulated vaginal and clitoral blood flow; assay type: in vivo, New Zealand White female rabbits; details: female rabbits
Description: as §1, §2

[5] = system: sexual readiness (clitoral erectogenesis and vaginal engorgement on sexual stimulation); test: Extrapolation of rabbit optimum dose to human females (sexual readiness dose)
[6] = system: penile erection; details: cited from earlier work
[7] = system: emesis; details: subcutaneous, about a 5-milligram dose; cited from earlier work
[8] = apomorphine hydrochloride studies reported in the literature; cited from earlier work

## CN1CCc2cccc3c2[C@H]1Cc1ccc(O)c(O)c1-3 [apomorphine, Apomorphine]
[1]; 0.05 mg/kg to 0.2 mg/kg, FIG. 1
  nerve stimulation-induced peak clitoral intracavernosal blood flow, concentration dependence: concentration dependent increase
[1]; 0.1 mg/kg, 0.2 mg/kg and 0.3 mg/kg, FIG. 1
  nerve stimulation-induced peak clitoral intracavernosal blood flow, significance vs before apomorphine administration: statistically significant increase; also recorded: significant increase in nerve stimulation-induced peak clitoral intracavernosal blood flow
[1]; before nerve stimulation
  effect on baseline clitoral intracavernosal blood flow: did not affect baseline clitoral intracavernosal blood flow
[2]; 0.4 mg/kg
  effect on nerve stimulation-induced increase in vaginal wall blood flow: adverse effect
[2]; intravenous, 0.05 and 0.2 mg/kg, FIG. 2
  nerve stimulation-induced peak vaginal wall blood flow, concentration dependence: concentration dependent increase
[2]; intravenous, 0.1 and 0.2 mg/kg, FIG. 2
  nerve stimulation-induced peak vaginal wall blood flow, significance vs before apomorphine administration: statistically significant increase; also recorded: significant increase in vaginal wall blood flow
[2]; intravenous, before nerve stimulation
  effect on basal vaginal wall blood flow: did not affect basal vaginal wall blood flow
[3]; increasing doses 0.05-0.4 mg/kg
  diastolic arterial pressure: concentration dependent moderate decrease
[3]
  systolic arterial pressure: minimal effect
[4]; body weight
  optimum intravenous dosage for vasculogenic effect on nerve stimulated vaginal and clitoral blood flow: about 100 μg/kg
[4]; intravenous
  optimal dose: about 0.1 mg/kg
[5]; correlated from rabbit intravenous dosage (about 1/10)
  optimum dosage for human females: ~10 µg/kg
[5]; correlated from rabbit intravenous dose (about 1/10)
  effective dose in a human female: about 0.01 mg/kg
[5]; sublingual tablet, women, about 70 kilograms
  significant sexual readiness dose: about 76 μg/kg
[5]; sublingual, 70 kg weight woman
  significant sexual readiness dosage: about 76 micrograms/kg
[6]; males, research and clinical studies
  erectogenic effect in males: erectogenic effect manifested by penile erection
[6]; oral, psychogenic patient, U.S. Pat. No. 5,624,677 and Heaton et al.
  induction of erection on oral administration: can be used to induce an erection
[6]; sublingual, patient
  plasma concentration maintained for stimulation sufficient to cause an erection: no more than 5.5 ng/ml
[7]
  emetic effect: emetic
[8]
  pharmacokinetics, females versus males: the same for both females and males
